Results as given in publication PMC6471618, “Comparison of the Sulfonamide Inhibition Profiles of the α-Carbonic Anhydrase Isoforms (SpiCA1, SpiCA2 and SpiCA3) Encoded by the Genome of the Scleractinian Coral Stylophora pistillata” (Marine Drugs, 2019).
“Also recorded” adds a separate entry of the source. Read-outs that look alike come from different tables or passages of the source.

Columns and labels:
[1] = tested on: coral calcification rates; design: method as in PMID 27513959; conditions: cited from earlier work
SpiCA3 = SpiCA3 (Stylophora pistillata, UniProt A0A1B0Y357); type: biochemical
Sequence of SpiCA3 (A0A1B0Y357 entry or part of it): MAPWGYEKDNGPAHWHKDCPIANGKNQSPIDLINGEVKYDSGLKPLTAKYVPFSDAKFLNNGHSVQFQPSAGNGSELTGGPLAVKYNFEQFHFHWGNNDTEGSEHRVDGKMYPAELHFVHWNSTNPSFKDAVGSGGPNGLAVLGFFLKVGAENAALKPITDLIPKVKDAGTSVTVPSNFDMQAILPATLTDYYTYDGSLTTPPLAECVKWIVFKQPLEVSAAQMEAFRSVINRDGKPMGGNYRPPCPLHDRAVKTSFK
Protocol: An Applied Photophysics stopped-flow instrument (Leatherhead, Surrey (UK)) has been used for assaying the CA catalyzed CO2 hydration activity. […] The un-catalyzed rates were determined in the same manner and subtracted from the total observed rates. […] The inhibition constants were obtained by non-linear least-squares methods using PRISM 3 and the Cheng-Prusoff equation, as reported earlier, and represent the mean from at least three different determinations. All CA isoforms were recombinant ones obtained in-house. All salts/small molecules were of the highest purity available, from Sigma-Aldrich (Milan, Italy).

hCA I = tested on: hCA I; design: method as in References 12 and 45; conditions: ref References 12 and 45, cited from earlier work; for hCA I inhibition, in words: authors' grading of the KI values of Table 1; for Ki: human recombinant isozyme, stopped flow CO2 hydrase assay
hCA II = tested on: hCA II; design: method as in References 12 and 45; conditions: cited from earlier work
SpiCA1 = tested on: SpiCA1; design: method as in References 12 and 45; conditions: ref References 12 and 45, cited from earlier work; for SpiCA1 inhibition, in words: authors' grading of the KI values of Table 1; for Ki: coral recombinant isoform, stopped flow CO2 hydrase assay
SpiCA2 = tested on: SpiCA2; design: method as in References 12 and 45; conditions: ref References 12 and 45, cited from earlier work; for SpiCA2 inhibition, in words: authors' grading of the KI values of Table 1; for Ki: coral recombinant isoform, stopped flow CO2 hydrase assay
[2] = authors' grading of the KI values of Table 1
[3] = read-out: KI SpiCA3; recombinant coral isoform, stopped-flow CO2 hydration, 20 mM TRIS pH 8.3, 15 min preincubation; errors 5–10%, 3 assays
[4] = recombinant coral isoform, stopped-flow CO2 hydration, 20 mM TRIS pH 8.3, 15 min preincubation; errors 5–10%, 3 assays; read-out: KI SpiCA3

SMILES | SpiCA3 inhibition, in words (SpiCA3; [2]) | Ki (SpiCA1) | Ki (SpiCA3; [4]) | other results
CC(=O)Nc1nnc(S(N)(=O)=O)s1 [AAZ, acetazolamide] | – | – | – | inhibition of coral calcification rates [1]: up to 73%
CCN[C@H]1CN(CCCOC)S(=O)(=O)c2sc(S(N)(=O)=O)cc21 [BRZ, brinzolamide] | low potency inhibitors | 48 nM | – | Ki (SpiCA3; [3]): 250 nM; hCA I inhibition, in words (hCA I): didn’t affect the hCAI activity; hCA II inhibition, in words (hCA II): high potency inhibitors; SpiCA1 inhibition, in words (SpiCA1): high potency inhibitors; SpiCA2 inhibition, in words (SpiCA2): low potency inhibitors; Ki (SpiCA2): 169 nM
NS(=O)(=O)c1nnc(NS(=O)(=O)c2ccccc2)s1 [BZA, benzolamide] | – | 20 nM | – | Ki (SpiCA3; [3]): 394 nM; Ki (SpiCA2): 214 nM
Cc1ccc(-c2cc(C(F)(F)F)nn2-c2ccc(S(N)(=O)=O)cc2)cc1 [CLX, celecoxib] | worst inhibitors; also recorded: low potency inhibitors | 34 nM | – | hCA I inhibition, in words (hCA I): didn’t affect the hCAI activity; SpiCA1 inhibition, in words (SpiCA1): high potency inhibitors; SpiCA2 inhibition, in words (SpiCA2): low potency inhibitors; Ki (SpiCA2): 690 nM
Nc1ccc(S(N)(=O)=O)cc1 [Compound 2] | worst inhibitors | 364 nM | – | –
NS(=O)(=O)c1cccc(S(N)(=O)=O)c1 [Compound 3] | – | – | 667 nM | Ki (hCA I): 79 nM
Cc1ccc(S(N)(=O)=O)cc1 [Compound 4] | – | 614 nM | – | Ki (SpiCA3; [3]): 694 nM; Ki (hCA I): 78500 nM; Ki (SpiCA2): 516 nM
NCc1ccc(S(N)(=O)=O)cc1 [Compound 5] | worst inhibitors | 83 nM | – | Ki (SpiCA2): 508 nM
NCCc1ccc(S(N)(=O)=O)cc1 [Compound 6] | worst inhibitors | 94 nM | – | Ki (SpiCA2): 577 nM
Nc1ccc(S(N)(=O)=O)cc1F [Compound 7] | worst inhibitors | 75 nM | – | –
Nc1ccc(S(N)(=O)=O)cc1Cl [Compound 8] | worst inhibitors | 88 nM | 1810 nM | –
Nc1ccc(S(N)(=O)=O)cc1Br [Compound 9] | – | 104 nM | 918 nM | Ki (SpiCA2): 540 nM
Nc1cc(C(F)(F)F)c(S(N)(=O)=O)cc1S(N)(=O)=O [Compound 11] | – | 367 nM | – | Ki (SpiCA3; [3]): 856 nM
Nc1cc(Cl)c(S(N)(=O)=O)cc1S(N)(=O)=O [Compound 12] | – | 295 nM | 430 nM | –
Nc1nnc(S(N)(=O)=O)s1 [Compound 13] | – | 105 nM | 275 nM | –
Cn1nc(S(N)(=O)=O)sc1=N [Compound 14] | – | 92 nM | 578 nM | –
NS(=O)(=O)c1ccc(O)cc1 [Compound 15] | – | – | 487 nM | –
NS(=O)(=O)c1ccc(CO)cc1 [Compound 16] | – | – | 199 nM | –
NS(=O)(=O)c1ccc(CCO)cc1 [Compound 17] | well inhibited | 770 nM | – | Ki (SpiCA3; [3]): 66 nM

SMILES | SpiCA3 inhibition, in words (SpiCA3; [2]) | Ki (SpiCA1) | Ki (SpiCA3; [4]) | other results
NS(=O)(=O)c1ccc(C(=O)O)cc1 [Compound 18] | – | 30 nM | 241 nM | –
Nc1nccc(Nc2ccc(S(N)(=O)=O)cc2)n1 [Compound 19] | well inhibited | 25 nM | – | Ki (SpiCA3; [3]): 83 nM
Nc1ccc(S(=O)(=O)Nc2nnc(S(N)(=O)=O)s2)cc1 [Compound 20] | well inhibited | 28 nM | – | Ki (SpiCA3; [3]): 74 nM
NS(=O)(=O)c1ccc(CCNS(=O)(=O)c2ccc([N+](=O)[O-])cc2CO)cc1 [Compound 21] | well inhibited | – | 53 nM | –
Nc1ccc(S(=O)(=O)Nc2ccc(S(N)(=O)=O)cc2)cc1 [Compound 22] | – | – | 568 nM | –
Nc1ccc(S(=O)(=O)NCc2ccc(S(N)(=O)=O)cc2)cc1 [Compound 23] | well inhibited | – | 62 nM | –
Nc1ccc(S(=O)(=O)NCCc2ccc(S(N)(=O)=O)cc2)cc1 [Compound 24] | well inhibited | – | – | Ki (SpiCA3; [3]): 46 nM
CCN[C@H]1C[C@H](C)S(=O)(=O)c2sc(S(N)(=O)=O)cc21 [DZA, Dorzolamide] | – | – | – | hCA II inhibition, in words (hCA II): high potency inhibitors; SpiCA1 inhibition, in words (SpiCA1): high potency inhibitors; SpiCA2 inhibition, in words (SpiCA2): low potency inhibitors
CCOc1ccc2nc(S(N)(=O)=O)sc2c1 [EZA, ethoxzolamide] | – | – | – | inhibition of coral calcification rates [1]: up to 73%
NS(=O)(=O)c1cc2c(cc1Cl)NCNS2(=O)=O [HCT, hydrochlorothiazide] | – | – | – | Ki (SpiCA3; [3]): 243 nM
NS(=O)(=O)c1ccc(S(=O)(=O)Nc2cccc3c(Cl)c[nH]c23)cc1 [IND, indisulam] | well inhibited | 163 nM | 92 nM | Ki (SpiCA2): 394 nM
CC(=O)/N=c1/sc(S(N)(=O)=O)nn1C [MZA, methazolamide] | – | 21 nM | 821 nM | –
O=C1NS(=O)(=O)c2ccccc21 [SAC, Saccharin] | worst inhibitors | 40 nM | – | Ki (hCA I): 18500 nM; Ki (SpiCA2): 104 nM
CCN1CCCC1CNC(=O)c1cc(S(N)(=O)=O)ccc1OC (centres unmarked) [SLP, Sulpiride] | worst inhibitors | – | – | –
NS(=O)(=O)c1ccc(N2CCCCS2(=O)=O)cc1 [SLT, sulthiame] | – | – | 251 nM | –
CC1(C)O[C@@H]2[C@@H](CO[C@@]3(COS(N)(=O)=O)OC(C)(C)O[C@@H]23)O1 [TPM, topiramate] | worst inhibitors | 29 nM | – | Ki (SpiCA2): 367 nM
Cc1onc(-c2ccccc2)c1-c1ccc(S(N)(=O)=O)cc1 [VLX, valdecoxib] | – | – | – | SpiCA2 inhibition, in words (SpiCA2): ineffective
NS(=O)(=O)Cc1noc2ccccc12 [ZNS, zonisamide] | worst inhibitors | 259 nM | – | Ki (SpiCA2): 645 nM
